Assay results taken from ChEMBL document CHEMBL2401682, “Evaluation of Jatropha isabelli natural products and their synthetic analogs as potential antimalarial therapeutic agents” (Eur J Med Chem, 2013).

Key:
Plasmodium falciparum [1] = assay: Antimalarial activity against chloroquine and pyrimethamine-resistant Plasmodium falciparum K1 infected in O-positive erythrocytes assessed as parasite growth inhibition after 72 hrs by DNA staining-based assay; format: functional, organism-based; details: K1, 72 h
HEK293 = assay: Cytotoxicity against HEK293 cells after 72 hrs by celltiter-glo assay; format: cell-based; details: Homo sapiens, HEK293, 72 h
BJ = assay: Cytotoxicity against human BJ cells after 72 hrs by celltiter-glo assay; format: cell-based
HepG2 = assay: Cytotoxicity against human HepG2 cells after 72 hrs by celltiter-glo assay; format: cell-based; details: HepG2, 72 h
Raji = assay: Cytotoxicity against human Raji cells after 72 hrs by celltiter-glo assay; format: cell-based
Plasmodium falciparum [2] = assay: Antimalarial activity against chloroquine-sensitive Plasmodium falciparum 3D7 infected in O-positive erythrocytes assessed as parasite growth inhibition after 72 hrs by DNA staining-based assay; format: functional, organism-based; details: 3D7, 72 h

In the case of `C/C1=C/C2=C[C@H](C)C[C@@]23O[C@]2(CC(C)(C)[C@@H](OC(C)C)[C@@H]2C1=O)[C@@H](C)C3=O`, the EC50 (Plasmodium falciparum [1]) is reported as 15 µM, the EC50 (HEK293) is reported as 26 µM and the EC50 (BJ) is reported as 26 µM. The EC50 (HepG2) was 26 µM, the EC50 (Raji) was 26 µM and the EC50 (Plasmodium falciparum [2]) was 15 µM.
`C=C1CC[C@H]2[C@@H](c3c(C)c(OC(C)=O)c4c(c31)C(=O)C(C)C4)C2(C)C` (stereo partly drawn) was tested, and the EC50 (Plasmodium falciparum [1]) was 6.31 µM, the EC50 (HEK293) was 26 µM and the EC50 (BJ) was 26 µM. For the same molecule, the EC50 (HepG2) was 26 µM, the EC50 (Raji) was 26 µM and the EC50 (Plasmodium falciparum [2]) was 15 µM.
`C[C@@H]1CC[C@H]2CC3=C(C(=O)O)CC[C@@]31C2(C)C` gave an EC50 (Plasmodium falciparum [1]) of 15 µM, an EC50 (HEK293) of 26 µM and an EC50 (HepG2) of 26 µM. It also gave an EC50 (Raji) of 26 µM and an EC50 (Plasmodium falciparum [2]) of 15 µM.
`COC(=O)C1=C2C[C@@H]3CC[C@@H](C)[C@]2(CC1)C3(C)C` was tested, and the EC50 (Plasmodium falciparum [1]) was 15 µM, the EC50 (HEK293) was 26 µM and the EC50 (BJ) was 26 µM. It also gave an EC50 (HepG2) of 26 µM, an EC50 (Raji) of 26 µM and an EC50 (Plasmodium falciparum [2]) of 15 µM.
Work on `C[C@@H]1CC[C@H]2CC3=C(C=O)CC[C@@]31C2(C)C` yielded an EC50 (Plasmodium falciparum [1]) of 15 µM, an EC50 (HEK293) of 26 µM and an EC50 (BJ) of 26 µM. It also gave an EC50 (HepG2) of 26 µM, an EC50 (Raji) of 26 µM and an EC50 (Plasmodium falciparum [2]) of 15 µM.
For `C[C@@H]1CC[C@H]2CC3=C(CO)CC[C@@]31C2(C)C`, the EC50 (Plasmodium falciparum [1]) was 15 µM, the EC50 (HEK293) was 26 µM and the EC50 (BJ) was 26 µM. The EC50 (HepG2) was 26 µM, the EC50 (Raji) was 26 µM and the EC50 (Plasmodium falciparum [2]) was 15 µM.
Molecule `C[C@@H]1CC[C@H]2CC3C(=O)CC[C@@]31C2(C)C` (stereo partly drawn) has an EC50 (Plasmodium falciparum [1]) of 15 µM, an EC50 (HEK293) of 26 µM and an EC50 (BJ) of 26 µM. For the same molecule, the EC50 (HepG2) was 26 µM, the EC50 (Raji) was 26 µM and the EC50 (Plasmodium falciparum [2]) was 15 µM.
Work on `CCOC(=O)CNC(=O)[C@H](CS[C@H]1[C@@H]2C(=O)/C(C)=C\C3=C[C@H](C)C[C@@]34O[C@]2(CC1(C)C)[C@@H](C)C4=O)NC(=O)CC[C@H](N)C(=O)O` yielded an EC50 (Plasmodium falciparum [1]) of 15 µM, an EC50 (HEK293) of 26 µM and an EC50 (BJ) of 12.5 µM. The EC50 (HepG2) was 26 µM, the EC50 (Raji) was 6.09 µM and the EC50 (Plasmodium falciparum [2]) was 15 µM.
Work on `C[C@@H]1C[C@@]23O[C@@]45CC(C)(C)[C@@H](Sc6ccccc6)[C@@H]4C(=O)C(C)(C=C2[C@H]1Sc1ccccc1)[C@]3(O)[C@@H]5C` (stereo partly drawn) yielded an EC50 (Plasmodium falciparum [1]) of 5.57 µM, an EC50 (HEK293) of 26 µM and an EC50 (BJ) of 26 µM. For the same molecule, the EC50 (HepG2) was 26 µM, the EC50 (Raji) was 26 µM and the EC50 (Plasmodium falciparum [2]) was 6.45 µM.
`C/C1=C/[C@]23O[C@H]2[C@H](C)C=C3C(=O)[C@@](C)(O)C(=O)CC(C)(C)/C=C/C1=O` showed an EC50 (Plasmodium falciparum [1]) of 15 µM, an EC50 (HEK293) of 26 µM and an EC50 (BJ) of 26 µM. For the same molecule, the EC50 (HepG2) was 26 µM, the EC50 (Raji) was 26 µM and the EC50 (Plasmodium falciparum [2]) was 15 µM.
In the case of `C=C1/C=C/C(C)(C)CC2=C(C)C(=O)[C@]3(C[C@@H](C)C=C3/C=C\1C)O2`, the EC50 (Plasmodium falciparum [1]) is reported as 15 µM, the EC50 (HEK293) is reported as 26 µM and the EC50 (BJ) is reported as 26 µM. It also gave an EC50 (HepG2) of 26 µM, an EC50 (Raji) of 26 µM and an EC50 (Plasmodium falciparum [2]) of 15 µM.
`CC1=C2CC(C)(C)/C=C/C/C(C)=C\C3=C[C@H](C)C[C@]3(O2)C1=O` was tested, and the EC50 (Plasmodium falciparum [1]) was 15 µM, the EC50 (HEK293) was 26 µM and the EC50 (BJ) was 26 µM. For the same molecule, the EC50 (HepG2) was 26 µM, the EC50 (Raji) was 26 µM and the EC50 (Plasmodium falciparum [2]) was 15 µM.
`C/C1=C/C2=C[C@H](C)C[C@@]23O[C@]2(CC(C)(C)C[C@@H]2[C@@]1(O)C(F)(F)F)[C@@H](C)C3=O` was tested, and the EC50 (Plasmodium falciparum [1]) was 15 µM, the EC50 (HEK293) was 26 µM and the EC50 (BJ) was 26 µM. The EC50 (HepG2) was 26 µM, the EC50 (Raji) was 26 µM and the EC50 (Plasmodium falciparum [2]) was 15 µM.
Work on `CC1=C2CC(C)(C)/C=C/C(=O)/C(C)=C\C3=C[C@H](C)C[C@]3(O2)[C@@]1(O)C(F)(F)F` yielded an EC50 (Plasmodium falciparum [1]) of 15 µM, an EC50 (HEK293) of 26 µM and an EC50 (BJ) of 26 µM. For the same molecule, the EC50 (HepG2) was 26 µM, the EC50 (Raji) was 26 µM and the EC50 (Plasmodium falciparum [2]) was 15 µM.
`CC1=C2CC(C)(C)/C=C/C(=O)/C(C)=C\C3=C[C@H](C)C[C@]3(O2)[C@]1(C)O` was tested, and the EC50 (Plasmodium falciparum [1]) was 15 µM, the EC50 (HEK293) was 26 µM and the EC50 (BJ) was 26 µM. The EC50 (HepG2) was 26 µM, the EC50 (Raji) was 26 µM and the EC50 (Plasmodium falciparum [2]) was 0.624 µM.
`CC1=C2CC(C)(C)[C@@H](C)CC(=O)/C(C)=C\C3=C[C@H](C)C[C@]3(O2)C1=O` gave an EC50 (Plasmodium falciparum [1]) of 15 µM, an EC50 (HEK293) of 26 µM and an EC50 (BJ) of 26 µM. The EC50 (HepG2) was 26 µM, the EC50 (Raji) was 26 µM and the EC50 (Plasmodium falciparum [2]) was 15 µM.
`CC1=C2CC(C)(C)/C=C/C(=O)/C(C)=C\C3=C[C@H](C)C[C@]3(O2)[C@@]1(O)C#N` showed an EC50 (Plasmodium falciparum [1]) of 15 µM, an EC50 (HEK293) of 26 µM and an EC50 (BJ) of 26 µM. For the same molecule, the EC50 (HepG2) was 26 µM, the EC50 (Raji) was 21.2 µM and the EC50 (Plasmodium falciparum [2]) was 15 µM.
Molecule `C/C1=C/C2=C[C@H](C)C[C@@]23O[C@]2(CC(C)(C)C[C@@H]2[C@@]1(O)C#N)[C@@H](C)C3=O` has an EC50 (Plasmodium falciparum [1]) of 15 µM, an EC50 (HEK293) of 8.66 µM and an EC50 (BJ) of 26 µM. It also gave an EC50 (HepG2) of 26 µM, an EC50 (Raji) of 26 µM and an EC50 (Plasmodium falciparum [2]) of 15 µM.
With `CC1=C2CC(C)(C)[C@@H]3C=C(OC3)/C(C)=C\C3=C[C@H](C)C[C@]3(O2)C1=O` the EC50 (Plasmodium falciparum [1]) was 15 µM, the EC50 (HEK293) was 26 µM and the EC50 (BJ) was 26 µM. For the same molecule, the EC50 (HepG2) was 26 µM, the EC50 (Raji) was 26 µM and the EC50 (Plasmodium falciparum [2]) was 15 µM.
